From PMC8786932, “Bicyclic azetidines target acute and chronic stages of Toxoplasma gondii by inhibiting parasite phenylalanyl t-RNA synthetase” (Nature Communications, 2022)
Where “and” joins values, the source holds several entries; their conditions need not be identical. Equal values may be shown once. Read-outs that look alike come from different tables or passages of the source.

What was measured:
[1] = target: T1, TgPheRS V262A M484I (Toxoplasma gondii, UniProt A0A125YPN6, M484I/V262A); assay: Enzyme assay, TgPheRS V262A M484I double mutant; type: biochemical; conditions: for enzyme assay readout (raw): V262A / M484I
T1 sequence (A0A125YPN6 1-525 V262A/M484I): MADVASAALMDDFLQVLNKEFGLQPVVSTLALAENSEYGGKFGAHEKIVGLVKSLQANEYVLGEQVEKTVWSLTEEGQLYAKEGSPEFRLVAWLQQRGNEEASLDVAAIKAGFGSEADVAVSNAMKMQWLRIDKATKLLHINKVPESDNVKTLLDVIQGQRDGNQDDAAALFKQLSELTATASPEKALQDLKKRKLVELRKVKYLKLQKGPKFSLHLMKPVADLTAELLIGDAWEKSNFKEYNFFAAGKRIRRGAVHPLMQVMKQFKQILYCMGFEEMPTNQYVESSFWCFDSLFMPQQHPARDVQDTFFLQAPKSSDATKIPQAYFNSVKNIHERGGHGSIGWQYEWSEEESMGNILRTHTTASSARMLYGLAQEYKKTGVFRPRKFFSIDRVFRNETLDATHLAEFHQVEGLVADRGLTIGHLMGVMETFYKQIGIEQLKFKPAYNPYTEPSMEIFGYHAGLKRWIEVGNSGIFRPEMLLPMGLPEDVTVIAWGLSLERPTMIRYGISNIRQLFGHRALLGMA
T1 sequence (S8EZ50 1-675 partner): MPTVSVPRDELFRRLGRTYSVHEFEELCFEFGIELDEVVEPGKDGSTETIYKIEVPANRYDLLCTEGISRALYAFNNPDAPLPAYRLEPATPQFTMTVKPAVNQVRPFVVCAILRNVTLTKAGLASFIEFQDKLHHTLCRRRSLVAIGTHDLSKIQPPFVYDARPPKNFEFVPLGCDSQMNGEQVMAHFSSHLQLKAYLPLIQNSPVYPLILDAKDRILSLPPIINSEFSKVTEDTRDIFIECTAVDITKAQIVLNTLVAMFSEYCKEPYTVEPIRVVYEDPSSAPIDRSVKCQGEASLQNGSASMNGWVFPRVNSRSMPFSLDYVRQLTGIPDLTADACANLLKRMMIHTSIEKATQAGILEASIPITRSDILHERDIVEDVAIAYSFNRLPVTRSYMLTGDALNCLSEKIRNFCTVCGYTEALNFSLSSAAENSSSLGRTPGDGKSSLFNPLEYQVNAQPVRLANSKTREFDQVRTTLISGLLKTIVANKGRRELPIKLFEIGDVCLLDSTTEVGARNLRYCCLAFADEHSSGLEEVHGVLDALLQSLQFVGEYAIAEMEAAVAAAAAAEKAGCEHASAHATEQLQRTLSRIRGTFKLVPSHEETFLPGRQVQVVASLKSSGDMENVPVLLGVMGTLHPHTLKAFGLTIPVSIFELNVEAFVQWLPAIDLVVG

[2] = in vivo; parameters: species or system mouse; Plasma free: unit not given here; conditions: for Kp / Cmax / MRT / Tmax / AUC(0-t) / AUC(0-inf) / CL/F / half-life: female, CD1, mouse, in vivo; for Cmax / MRT / Tmax / AUC(0-t) / AUC(0-inf) / CL/F / half-life: po, 10 mg/kg/day; for Cmax / MRT / Tmax / AUC(0-t) / AUC(0-inf) / CL/F / half-life / Vd: mouse, 10 mg/kg/day p.o.; for AUC(0-t): read-out: AUC0–24
Description: […]. All mice were fed prior to dosing. After dosing, 200 uL of blood was collected at predetermined time points (pre, 1, 3, 7, 24 h). Blood samples were processed for plasma by centrifugation at approximately 4 °C, 4,500 g for 15 min within […]. Plasma samples were stored in polypropylene tubes, quick frozen over dry ice and kept at −70 ± 10 °C until LC/MS/MS analysis. Plasma concentration versus time data was analyzed by non-compartmental approaches using the Phoenix WinNonlin 6.3 software program. Brain tissue samples were taken at day 1, 4, and 8. Tissue samples were processed by centrifugation at approximately 10 °C, 17,000 g for 30 min within 30 min of collection.

COc1ccc(NC(=O)N2CCCCN3[C@H](CN(C)C)[C@H](c4ccc(C#Cc5ccccc5)cc4)[C@@H]3C2)cc1 [BRD7929]
IC50 ([1]; Table S4, V262A-M484I, read-out: IC50 (enzyme inhibition)): 197 nM | enzyme assay readout (raw) ([1]; 0.000005 μM): 0.3462 and 0.3680 and 0.4006 | enzyme assay readout (raw) ([1]; 0.000050 μM): 0.3131 and 0.3315 and 0.3158 | enzyme assay readout (raw) ([1]; 0.000500 μM): 0.3040 and 0.3143 and 0.2881 | enzyme assay readout (raw) ([1]; 0.005000 μM): 0.2789 and 0.2890 and 0.2929 | enzyme assay readout (raw) ([1]; 0.050000 μM): 0.2807 and 0.2760 and 0.2780 | enzyme assay readout (raw) ([1]; 0.500000 μM): 0.2333 and 0.2480 and 0.2628 | enzyme assay readout (raw) ([1]; 5.000000 μM): 0.2051 and 0.1829 and 0.2098 | enzyme assay readout (raw) ([1]; 50.000000 μM): 0.1004 and 0.1152 and 0.1172 | free concentration in plasma vs EC50 ([2]; 10 mg/kg p.o. daily, 8 days, unbound): remained below the EC50 for most of the duration | Plasma free ([2]; 10 mg/kg p.o. daily, mean, time 1:00:00): 7.292 | Brain free ([2]; 10 mg/kg p.o. daily, mean, time 24:00:00): 24.8595 | Kp ([2]; brain/plasma, Day 1, read-out: Kp (Cb/Cp)): 169 | Kp ([2]; brain/plasma, Day 4, read-out: Kp (Cb/Cp)): 211 | Kp ([2]; brain/plasma, Day 8, read-out: Kp (Cb/Cp)): 577 | Cmax ([2]; Day 1): 153 ng/mL | MRT ([2]; Day 1): 13.1 h | Tmax ([2]; Day 1): 18.3 h | AUC(0-t) ([2]; Day 1): 3190 ng·h/mL | AUC(0-inf) ([2]; Day 4): 27700 ng·h/mL | CL/F ([2]; Day 4): 7.1 mL/min/kg | Cmax ([2]; Day 4): 330 ng/mL | MRT ([2]; Day 4): 11.7 h | Tmax ([2]; Day 4): 4.3 h | half-life ([2]; Day 4): 64.6 h | AUC(0-t) ([2]; Day 4): 6360 ng·h/mL | AUC(0-inf) ([2]; Day 8): 20000 ng·h/mL | CL/F ([2]; Day 8): 10 mL/min/kg | Cmax ([2]; Day 8): 207 ng/mL | MRT ([2]; Day 8): 12 h | Tmax ([2]; Day 8): 5 h | half-life ([2]; Day 8): 81.3 h | AUC(0-t) ([2]; Day 8): 4390 ng·h/mL | Kp ([2]; unbound brain/plasma, Day 1, read-out: Kpu,u (Cb/Cp)): 2.1 | Kp ([2]; unbound brain/plasma, Day 4, read-out: Kpu,u (Cb/Cp)): 2.6 | Kp ([2]; unbound brain/plasma, Day 8, read-out: Kpu,u (Cb/Cp)): 7.2 | Kp ([2]; read-out: Kp u,u, concentration in brain vs. plasma): 2 to 7 | Vd ([2]; Day 4): 32 L/kg | Vd ([2]; Day 8): 62 L/kg | Plasma free ([2]; time 3:00:00): 9.26 | Plasma free ([2]; time 7:00:00): 10.41 | Plasma free ([2]; time 24:00:00): 11.33 | Plasma free ([2]; time 72:00:00): 12.09 | Plasma free ([2]; time 73:00:00): 19.13 | Plasma free ([2]; time 75:00:00): 25.02 | Plasma free ([2]; time 79:00:00): 22.5 | Brain free ([2]; time 96:00:00): 44.7005 | Plasma free ([2]; time 96:00:00): 17.52 | Plasma free ([2]; time 168:00:00): 12.4 | Plasma free ([2]; time 169:00:00): 14.08 | Plasma free ([2]; time 171:00:00): 14.92 | Plasma free ([2]; time 175:00:00): 15.38 | Brain free ([2]; time 192:00:00): 77.3745 | Plasma free ([2]; time 192:00:00): 12.86
